Assay results taken from patent US20190308956A1, “PIPERAZINE DERIVATIVES AS ANTIVIRAL AGENTS WITH INCREASED THERAPEUTIC ACTIVITY” (SERVICIO ANDALUZ DE SALUD, priority 2016, published 2019).
Like-named read-outs stand apart in the source and are kept apart here.

How the values were obtained:
HAdV5-GFP [1] = assay: Plaque assay, HAdV5-GFP in 293β5 cells; assay type: cell-based; conditions: for Selectivity Index (SI) HAdV5: ratio CC50 to IC50, HAdV5; for inhibition at 10 µM: read-out: Percentage of plaque formation inhibition, HAdV5-GFP, 10 μM, 293β5 cell line
Outline: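 293β5 cells infected with HAdV5-GFP at 0.06 vp/cell for 2 h at 37° C. Then overlaid with agar/EMEM containing compound (5 to 1 μM stated range; screen run at 10 μM). After 7 days at 37° C., GFP plaques imaged and counted relative to DMSO control.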

HAdV16-GFP = assay: Plaque assay, HAdV16-GFP in 293β5 cells; assay type: cell-based; conditions: for Selectivity Index (SI) HAdV16: ratio CC50 to IC50, HAdV16
Procedure: 1.5. Plaque assay. For low MOI infections, active compounds were further evaluated in a plaque assay. 293β5 cells were seeded in 6-well plates at 4×10^5 cells per well in duplicate for each condition. When cells reached 80-90% confluency, they were infected with HAdV5-GFP or HAdV16-GFP (0.06 vp/cell) and rocked for 2 h at 37° C. The inoculum was removed and the cells were washed once with PBS. The cells were then carefully overlaid with 4 ml/well of equal parts of 1.6% […] Difco Agar Noble (Becton, Dickinson & Co, Sparks, MD) and 2× EMEM (BioWhittaker) supplemented with 2x penicillin/streptomycin, 2× L-glutamine and 10% FBS. The mixture also contained compound in concentrations ranging from 5 to 1 μM. Following incubation for 7 days at 37° C., plates were scanned with a Typhoon 9410 imager (GE Healthcare Life Sciences), and plaques were quantified with ImageJ.43

wild-type HAdV5 = assay: Virus yield reduction (burst assay, TCID50), HAdV5; assay type: cell-based; conditions: for Virus yield reduction HAdV5: 50 μM, A549 cells, 48 h, yield with DMSO divided by yield with compound
Procedure: (§1) 1.8. Virus yield reduction. The effect of the active compounds on virus production was evaluated in a burst assay A549 cells were infected with wild-type HAdV5 or HAdV16 (MOI 100) in the presence or absence of 50 μM compounds. After 48 h, cells were harvested and subjected to three rounds of freeze/thaw. Serial dilutions of clarified lysates were titrated on A549 cells and TCID50 values were calculated using an endpoint dilution method.46

wild-type HAdV16 = assay: Virus yield reduction (burst assay, TCID50), HAdV16; assay type: cell-based; conditions: 50 μM, A549 cells, 48 h, yield with DMSO divided by yield with compound
Procedure: as §1

HCMV (AD169) = assay: HCMV infectivity assay by quantitative PCR; assay type: cell-based, human cytomegalovirus; conditions: Human betaherpesvirus 5, AD169, MRC5, MRC-5 cells, 72 h, qPCR, read-out: Inhibition of HCMV DNA replication
Procedure: 1.9. HCMV infectivity assay by quantitative PCR. […] After 72 h of incubation at 37° C., DNA was purified from the cell lysate with the QlAamp DNA Mini Kit (QIAGEN, Valencia, Calif.) following the manufacturer's instructions. TaqMan primers and probes for a region of the US28 gene were designed with the GenScript Real-time PCR (TaqMan) Primer Design software (GenScript). Oligonucleotides sequences were CMV-F: 5′-[…]-3′; CMV-R: 5′-[…]-3′; and CMV-Probe: 5′-[…]-3′. Real-time PCR mixtures consisted of 10 μl the purified DNA, CMV-F at a concentration of 100 nM, CMV-R at a concentration of 300 nM, and CMV-Probe at a concentration of 50 nM in a total volume of 12.5 μl and mixed with 12.5 μl of KAPA PROBE FAST qPCR Master Mix (KAPABiosystems, MA). The PCR cycling protocol was 95° C. for 10 min followed by 40 cycles of 95° C. for 30 sec and 58° C. for 60 sec. Human glyceraldehyde-3-phosphate dehydrogenase (GAPDH) was used as internal control. Oligonucleotides sequences for GAPDH and conditions were those previously reported by Rivera et al.44 For quantification, gene fragment from US28 and GAPDH were cloned into the pGEM-T Easy vector (Promega) and known concentrations of template were used to generate a standard curve in parallel for each experiment. All assays were performed in a C1000 Thermal Cycler apparatus (BioRad).

A549 cells = assay: Cytotoxicity assay (alamarBlue cell viability); assay type: cell-based, Human
Outline: (§2)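 Actively dividing A549 cells exposed to compounds for 48 h, then alamarBlue (1/10th in culture medium) added for a further 4 h. CC50 taken as concentration giving 50% cytotoxicity; selectivity index = CC50/IC50, with IC50 from HAdV infection inhibition.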

[2] = Cytotoxicity assay (alamarBlue cell viability); assay type: cell-based, Human; conditions: human, A549 cells, 48 h
Outline: as §2

[3] = tested on: Acinetobacter baumannii strains resistant to colistine; assay: Screening of inhibition of bacterial growth at 50 μM; assay type: cell-based; conditions: 5×10^5 CFU/ml, 18 h; for Screening, growth inhibition Ab 11: strain Ab 11, 50 μM; for Screening, growth inhibition Ab 17: strain Ab 17, 50 μM; for Screening, growth inhibition Ab 24: strain Ab 24, 50 μM; for Screening, growth inhibition Ab 21R: strain Ab 21R, 50 μM
Description: (§3) All of the strains used were Acinetobacter baumannii strains resistant to colistine: Resistance (R)≥4 Sensibility (S)≤2—All of these strains have been disclosed in Valencia R, Arroyo L A, Conde M, Aldana J M, Torres M J, Fernandez-Cuenca F, et al. Nosocomial outbreak of infection with pan-drug-resistant Acinetobacter baumannii in a tertiary care university hospital. Infection control and hospital epidemiology. 2009; 30(3):257-63. The specific strains used were the following: 1, 10, 11, 14, 16, 17, 19, 20, 21R, 22P, 24, 99 and 113.
Evaluation of the inhibition of the bacterial growth of the 4 families of piperazines derivatives was performed by using a final concentration of 50 μM of each piperazine derivative in a concentration of 5×10^5 CFU/ml of each strain of A. baumannii in 96-well plates.
These plates were incubated for 18 hours at 37° C.

HAdV5-GFP [4] = assay: Entry assay, HAdV5-GFP in A549 cells (GFP expression); assay type: cell-based
Procedure: 1.3. Entry assay. An initial rapid screening was performed using human A549 epithelial cells (3×10^5 cells/well in Corning black wall, clear bottom 96-well plates) infected with HAdV5-GFP (2,000 vp/cell) in the presence of 50 μM of the candidate antiviral compounds. Virus was preincubated with the compounds (individual and mixed) for 45 minutes at 4° C., and then added to cells. A standard infection curve was generated in parallel by infecting cells in the absence of compounds using serial two-fold dilutions of virus. All reactions were done in triplicate. Cells, virus and compounds were incubated for 48 h at 37° C. and 5% CO2. Infection, as measured by HAdV-mediated GFP expression, was analyzed using a Typhoon 9410 imager (GE Healthcare Life Sciences), and quantified with ImageQuantTL (GE Healthcare Life Sciences).

[5] = tested on: Acinetobacter baumannii strains resistant to colistine; assay: Minimal inhibitory concentration (MIC), microdilution in MHBII; assay type: cell-based; conditions: 5×10^5 CFU/ml, 18 h; for CMI (MIC) Ab 11: strain Ab 11, MHBII; for CMI (MIC) Ab 17: strain Ab 17, MHBII; for CMI (MIC) Ab 24: strain Ab 24, MHBII; for CMI (MIC) Ab 21R: strain Ab 21R, MHBII
Description: as §3
Microdilution in cell medium Mueller Hinton Broth II (MHBII). This technique was carried out solely in those piperazines which presented inhibitory activity in the screening study.
We used decreasing concentrations of each piperazine derivative (from 50 μM -0.05 μM) in a concentration of 5×10^5 CFU/ml of each strain of A. baumannii in 96 well plates. These plates were incubated for 18 hours at a temperature 37° C.

[6] = A549 cells, 48 h, read-out: CC50

Row | SMILES | Selectivity Index (SI) HAdV5 (HAdV5-GFP [1]) | IC50 (HAdV5-GFP [1]; read-out: IC50 HAdV5) | inhibition at 10 µM (HAdV5-GFP [1]) | IC50 (HAdV16-GFP) | Selectivity Index (SI) HAdV16 (HAdV16-GFP) | Virus yield reduction HAdV5 (wild-type HAdV5) | Virus yield reduction HAdV16 (wild-type HAdV16) | inhibition at 50 µM (HCMV (AD169)) | CC50 at 48 h [2] | Screening, growth inhibition Ab 11 [3] | Screening, growth inhibition Ab 17 [3] | Screening, growth inhibition Ab 24 [3] | Inhibition assay in plaque (HAdV5-GFP [1]) | Starting Inhibition assay (HAdV5-GFP [4]) | YIELD REDUCTION (wild-type HAdV5) | CC50 (A549 cells) | CMI (MIC) Ab 11 [5] | CMI (MIC) Ab 17 [5] | CMI (MIC) Ab 24 [5] | other results
1 | CC(C)(C)OC(=O)N1CCN(C(=O)Nc2ccc([N+](=O)[O-])cc2)C(c2ccccc2)C1 (stereo not drawn) [Compound 46, 4-tert-Butoxycarbonyl-1-[(4-nitrophenyl)aminocarbonyl]-2-phenylpiperazine] | 47.3 | 3.4 ± 0.96 µM | 96 to 100% | 4.8 ± 1.24 µM | 33.6 | 211.7 ± 44.1 fold | 265.5 ± 29.1 fold | 99.6 ± 0.39% | 161 ± 45.2 µM |  |  |  |  |  |  |  |  |  |  | CC50 (A549 cells; [6]): 161 ± 45.2 µM
2 | O=C(c1cc2ccccc2o1)N1CCN(C(=O)Nc2ccc([N+](=O)[O-])cc2)C(c2ccccc2)C1 (stereo not drawn) [Compound 59, 4-(Benzofuran-2-carbonyl)-1-[(4-nitrophenyl)aminocarbonyl]-2-phenylpiperazine] | 93.5 | 2.1 ± 0.1 µM | 96 to 100% | 3.5 ± 1.03 µM | 55.4 | 35.7 ± 13.5 fold | 34.6 ± 11.6 fold | 99.9 ± 0.06% | 193.9 ± 1.68 µM |  |  |  |  |  |  |  |  |  |  | 
3 | O=C(c1cc2ccccc2o1)N1CCN(C(=O)Nc2ccc(Cl)cc2)C(c2ccccc2)C1 (stereo not drawn) [Compound 60, 4-(Benzofuran-2-carbonyl)-1-[(4-chlorophenyl)aminocarbonyl]-2-phenylpiperazine] | 79 | 2.5 ± 1.17 µM | 96 to 100% | 3.4 ± 0.93 µM | 56.9 | 9.9 ± 3.4 fold | 27.4 ± 16.9 fold | 98.2 ± 2.1% | 194 ± 9.19 µM |  |  |  |  |  |  |  |  |  |  | 
4 | N#Cc1ccc(NC(=O)N2CCN(C(=O)c3cc4ccccc4o3)CC2c2ccccc2)cc1 (stereo not drawn) [Compound 63, 4-(Benzofuran-2-carbonyl)-1-[(4-cyanophenyl)aminocarbonyl]-2-phenylpiperazine] | 42.7 | 4.7 ± 0.11 µM | 96 to 100% | 3.9 ± 1.12 µM | 51.2 | 16.9 ± 5.2 fold | 60.9 ± 12.5 fold | 99.9 ± 0.05% | 199.8 ± 0.26 µM |  |  |  |  |  |  |  |  |  |  | CC50 (A549 cells; [6]): 199.8 ± 0.26 µM
5 | CC1CN(C(=O)Cc2ccccc2)CCN1C(=S)Nc1ccc([N+](=O)[O-])cc1 (stereo not drawn) [Vip 628] |  |  |  |  |  |  |  |  |  | <50 µM | <50 µM | <50 µM | 98.21 ± 3.57 | 60.79 ± 17.31 | 25.59 ± 10.45 | 210 µM | 50 µM | 25 µM | 50 µM | IC50 (HAdV5-GFP [1]; read-out: IC50 plaque): 2.04 µM
6 | CC1CN(C(=O)Cc2ccccc2)CCN1C(=S)Nc1cc(C(F)(F)F)cc(C(F)(F)F)c1 (stereo not drawn) [Vip 634] |  |  |  |  |  |  |  |  |  | <50 µM | <50 µM | <50 µM | 99.50 ± 1.58 | 94.46 ± 3.87 | 33.42 ± 10.16 | 130 µM | 6.25 µM | 3.12 µM | 6.25 µM | Screening, growth inhibition Ab 14 ([3]; strain Ab 14, 50 μM): <50 µM; Screening, growth inhibition Ab 21R [3]: <50 µM; CMI (MIC) Ab 14 ([5]; strain Ab 14, MHBII): 3.12 µM; CMI (MIC) Ab 21R [5]: 3.12 µM
7 | CC1CN(C(=O)Cc2ccccc2)CCN1C(=S)Nc1ccc(C#N)cc1 (stereo not drawn) [Vip 635] |  |  |  |  |  |  |  |  |  | <50 µM | <50 µM | <50 µM | 98.36 ± 2.13 | 60.06 ± 17.39 | 18.39 ± 5.44 | 175 µM | 50 µM | 50 µM | 50 µM | Screening, growth inhibition Ab 21R [3]: <50 µM; CMI (MIC) Ab 21R [5]: 50 µM
